molecular target: T1, F508del (Homo sapiens, UniProt P13569, DEL508-508); assay: Protocol 1: membrane potential optical assay (FLIPR III, voltage sensing dye), identification of potentiator compounds; format: cell-based; settings: Table 3, compounds of Table 1
T1 construct: expressed in transfected cells
Procedure, shortened: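 Mouse NIH 3T3 fibroblasts stably expressing F508del, temperature-corrected at 27 °C for 24 h, pretreated with compound, then loaded with voltage-sensing redistribution dye. Forskolin was added in a single step with a chloride gradient (chloride-free gluconate bath; Bath Solution #1 HEPES pH 7.4). Membrane-potential fluorescence read on FLIPR III.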

T1 sequence (P13569 with tags, fused parts or gaps DEL508-508): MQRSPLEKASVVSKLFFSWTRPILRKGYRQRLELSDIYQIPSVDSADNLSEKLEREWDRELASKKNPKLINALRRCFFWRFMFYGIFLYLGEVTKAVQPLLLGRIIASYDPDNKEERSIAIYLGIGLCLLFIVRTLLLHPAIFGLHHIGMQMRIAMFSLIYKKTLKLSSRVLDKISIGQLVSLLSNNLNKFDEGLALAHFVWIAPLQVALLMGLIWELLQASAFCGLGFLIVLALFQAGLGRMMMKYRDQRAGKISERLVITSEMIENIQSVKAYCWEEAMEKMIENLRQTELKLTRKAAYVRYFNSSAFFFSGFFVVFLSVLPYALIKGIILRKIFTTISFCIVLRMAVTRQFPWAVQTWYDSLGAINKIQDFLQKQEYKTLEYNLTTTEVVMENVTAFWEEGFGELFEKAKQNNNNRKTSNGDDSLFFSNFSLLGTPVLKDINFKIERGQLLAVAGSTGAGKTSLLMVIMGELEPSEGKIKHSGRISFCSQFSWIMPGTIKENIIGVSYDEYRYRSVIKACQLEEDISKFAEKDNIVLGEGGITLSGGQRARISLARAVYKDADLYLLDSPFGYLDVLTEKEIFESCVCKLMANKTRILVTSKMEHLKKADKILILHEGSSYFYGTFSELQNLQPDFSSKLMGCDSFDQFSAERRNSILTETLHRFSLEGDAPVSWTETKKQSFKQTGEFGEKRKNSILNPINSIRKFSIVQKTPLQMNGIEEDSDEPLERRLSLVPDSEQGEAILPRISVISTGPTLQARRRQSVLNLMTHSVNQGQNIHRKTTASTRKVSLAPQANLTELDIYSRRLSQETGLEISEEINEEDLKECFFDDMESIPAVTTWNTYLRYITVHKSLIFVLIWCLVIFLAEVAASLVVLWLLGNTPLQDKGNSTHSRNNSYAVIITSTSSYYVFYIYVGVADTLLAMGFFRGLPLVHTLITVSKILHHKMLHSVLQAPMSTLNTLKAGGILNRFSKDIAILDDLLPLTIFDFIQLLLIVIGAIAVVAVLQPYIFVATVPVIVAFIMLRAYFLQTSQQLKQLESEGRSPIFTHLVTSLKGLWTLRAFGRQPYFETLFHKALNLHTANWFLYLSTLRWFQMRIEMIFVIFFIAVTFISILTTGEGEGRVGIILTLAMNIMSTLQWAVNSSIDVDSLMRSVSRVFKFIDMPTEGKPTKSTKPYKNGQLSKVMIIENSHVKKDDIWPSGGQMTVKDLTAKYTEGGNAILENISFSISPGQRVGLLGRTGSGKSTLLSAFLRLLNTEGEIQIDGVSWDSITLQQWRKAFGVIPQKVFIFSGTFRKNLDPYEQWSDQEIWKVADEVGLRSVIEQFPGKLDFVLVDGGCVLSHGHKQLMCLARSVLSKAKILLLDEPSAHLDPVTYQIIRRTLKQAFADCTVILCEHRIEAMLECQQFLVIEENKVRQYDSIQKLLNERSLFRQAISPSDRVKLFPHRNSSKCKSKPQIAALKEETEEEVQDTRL

| EC30 | SMILES |
| --- | --- |
| +++ (“+++” means <3 uM) | Cc1cc(C)c(Oc2nc(C3=CCC(C(C)C)CC3)ccc2C(=O)NS(=O)(=O)c2cccc(N)n2)c(C)c1 (stereo not drawn) [Compound 1630, N-[(6-amino-2-pyridyl)sulfonyl]-6-(4-isopropylcyclohexen-1-yl)-2-(2,4,6-trimethylphenoxy)pyridine-3-carboxamide] |
| ++ (“++” means between 3 uM and 10 uM) | CC(=O)C1CCC(c2ccc(C(=O)NS(=O)(=O)c3cccc(N)n3)c(Oc3c(C)cc(C)cc3C)n2)CC1 (stereo not drawn) [Compound 1631, 6-(4-acetylcyclohexyl)-N-[(6-amino-2-pyridyl)sulfonyl]-2-(2,4,6-trimethylphenoxy)pyridine-3-carboxamide] |
| ++ (“++” means between 3 uM and 10 uM) | C[C@@H]1CN(c2nc(C3CCCOC3)ccc2C(=O)NS(=O)(=O)c2cccc(N)n2)C(C)(C)C1 (stereo partly drawn) [Compound 1632, N-[(6-amino-2-pyridyl)sulfonyl]-6-tetrahydropyran-3-yl-2-[(4S)-2,2,4-trimethylpyrrolidin-1-yl]pyridine-3-carboxamide] |
| +++ (“+++” means <3 uM) | C[C@@H]1CN(c2nc(C(C)(C)C)c(/C=C/C3CCCC3)cc2C(=O)NS(=O)(=O)c2cccc(N)n2)C(C)(C)C1 [Compound 1633, N-[(6-amino-2-pyridyl)sulfonyl]-6-tert-butyl-5-[(E)-2-cyclopentylvinyl]-2-[(4S)-2,2,4-trimethylpyrrolidin-1-yl]pyridine-3-carboxamide] |
| ++ (“++” means between 3 uM and 10 uM) | CC(=O)N1CCC(c2ccc(C(=O)NS(=O)(=O)c3cccc(N)n3)c(N3C[C@@H](C)CC3(C)C)n2)CC1 [Compound 1634, 6-(1-acetyl-4-piperidyl)-N-[(6-amino-2-pyridyl)sulfonyl]-2-[(4S)-2,2,4-trimethylpyrrolidin-1-yl]pyridine-3-carboxamide] |
| +++ (“+++” means <3 uM) | CC1(C)CN(c2nc(C(F)(F)F)ccc2C(=O)NS(=O)(=O)c2cccc(N)n2)C(C)(C)C1 [Compound 1635, N-[(6-amino-2-pyridyl)sulfonyl]-2-(2,2,4,4-tetramethylpyrrolidin-1-yl)-6-(trifluoromethyl)pyridine-3-carboxamide] |
| ++ (“++” means between 3 uM and 10 uM) | C[C@@H]1CN(c2nc(-c3cc(O)cc(F)c3)ccc2C(=O)NS(=O)(=O)c2cccc(N)n2)C(C)(C)C1 [Compound 1636, N-[(6-amino-2-pyridyl)sulfonyl]-6-(3-fluoro-5-hydroxy-phenyl)-2-[(4S)-2,2,4-trimethylpyrrolidin-1-yl]pyridine-3-carboxamide] |
| +++ (“+++” means <3 uM) | Cc1cc(OC(C)C)nc(-c2ccc(C(=O)NS(=O)(=O)c3cccc(N)n3)c(N3C[C@@H](C)CC3(C)C)n2)c1 [Compound 1637, N-[(6-amino-2-pyridyl)sulfonyl]-6-(6-isopropoxy-4-methyl-2-pyridyl)-2-[(4S)-2,2,4-trimethylpyrrolidin-1-yl]pyridine-3-carboxamide] |
| +++ (“+++” means <3 uM) | CC1(C)CN(c2ncc(C(F)(F)F)cc2C(=O)NS(=O)(=O)c2cccc(N)n2)C(C)(C)C1 [Compound 1638, N-[(6-amino-2-pyridyl)sulfonyl]-2-(2,2,4,4-tetramethylpyrrolidin-1-yl)-5-(trifluoromethyl)pyridine-3-carboxamide] |
| +++ (“+++” means <3 uM) | CCOc1cccc2c1CN(Cc1c(C)cc(C)cc1C)C2(C)C(=O)NS(=O)(=O)c1ncccc1O (stereo not drawn) [Compound 1642, 4-ethoxy-N-[(3-hydroxy-2-pyridyl)sulfonyl]-1-methyl-2-[(2,4,6-trimethylphenyl)methyl]isoindoline-1-carboxamide] |
| ++ (“++” means between 3 uM and 10 uM) | Cc1cc(C)c(Oc2nc(C3=CCNCC3)ccc2C(=O)NS(=O)(=O)c2cccc(N)n2)c(C)c1 [Compound 1643, N-[(6-amino-2-pyridyl)sulfonyl]-6-(1,2,3,6-tetrahydropyridin-4-yl)-2-(2,4,6-trimethylphenoxy)pyridine-3-carboxamide] |
| +++ (“+++” means <3 uM) | Cc1ccc(OCC(C)(C)C)nc1-c1ccc(C(=O)NS(=O)(=O)c2cccc(N)n2)c(N2CC(C)CC2(C)C)n1 (stereo not drawn) [Compound 1645, N-[(6-amino-2-pyridyl)sulfonyl]-6-[6-(2,2-dimethylpropoxy)-3-methyl-2-pyridyl]-2-(2,2,4-trimethylpyrrolidin-1-yl)pyridine-3-carboxamide] |
| +++ (“+++” means <3 uM) | CC1CN(c2nc(C(C)(C)C)c(C3=CC(C)(C)OC(C)(C)C3)cc2C(=O)NS(=O)(=O)c2cccc(N)n2)C(C)(C)C1 (stereo not drawn) [Compound 1647, N-[(6-amino-2-pyridyl)sulfonyl]-6-tert-butyl-5-(2,2,6,6-tetramethyl-3H-pyran-4-yl)-2-(2,2,4-trimethylpyrrolidin-1-yl)pyridine-3-carboxamide] |
| ++ (“++” means between 3 uM and 10 uM) | CC(=O)N1CC=C(c2ccc(C(=O)NS(=O)(=O)c3cccc(N)n3)c(Oc3c(C)cc(C)cc3C)n2)CC1 [Compound 1649, 6-(1-acetyl-3,6-dihydro-2H-pyridin-4-yl)-N-[(6-amino-2-pyridyl)sulfonyl]-2-(2,4,6-trimethylphenoxy)pyridine-3-carboxamide] |
| +++ (“+++” means <3 uM) | Cc1cc(C)c(Oc2nc(C3CC4CCC3(C)C4(C)C)ccc2C(=O)NS(=O)(=O)c2cccc(N)n2)c(C)c1 (stereo not drawn) [Compound 1650, N-[(6-amino-2-pyridyl)sulfonyl]-6-(1,7,7-trimethylnorbornan-2-yl)-2-(2,4,6-trimethylphenoxy)pyridine-3-carboxamide] |
| ++ (“++” means between 3 uM and 10 uM) | CC(C)Oc1ccc(-c2cnc(C(=O)NS(=O)(=O)c3cccc(N)n3)c(N3[C@H](C)CC[C@@H]3C)n2)cn1 [Compound 1651, N-[(6-amino-2-pyridyl)sulfonyl]-3-[(2S,5R)-2,5-dimethylpyrrolidin-1-yl]-5-(6-isopropoxy-3-pyridyl)pyrazine-2-carboxamide] |
| +++ (“+++” means <3 uM) | Cc1cc(C)c(Cn2nc(C(C)(C)C)cc2C(=O)NS(=O)(=O)c2ccc(N)cc2)c(C)c1 [Compound 1653, N-(4-aminophenyl)sulfonyl-5-tert-butyl-2-[(2,4,6-trimethylphenyl)methyl]pyrazole-3-carboxamide] |
| +++ (“+++” means <3 uM) | CCOc1cccc2c1CN(Cc1ccc(C(C)C)cc1)C2(C)C(=O)NS(=O)(=O)c1cccc(F)n1 (stereo not drawn) [Compound 1655, 4-ethoxy-N-[(6-fluoro-2-pyridyl)sulfonyl]-2-[(4-isopropylphenyl)methyl]-1-methyl-isoindoline-1-carboxamide] |

| SMILES | EC30 |
| --- | --- |
| CCC(Oc1nc(-c2cc(F)cc(OCC(C)C)c2)ccc1C(=O)NS(=O)(=O)c1cccc(N)n1)C1CC1(C)C (stereo not drawn) [Compound 1639, N-[(6-amino-2-pyridyl)sulfonyl]-2-[1-(2,2-dimethylcyclopropyl)propoxy]-6-(3-fluoro-5-isobutoxy-phenyl)pyridine-3-carboxamide] | +++ (“+++” means <3 uM) |
| CC(C)COc1cc(F)cc(-c2ccc(C(=O)NS(=O)(=O)C3CCOC3)c(N3C[C@@H](C)CC3(C)C)n2)c1 (stereo partly drawn) [Compound 1640, 6-(3-fluoro-5-isobutoxy-phenyl)-N-tetrahydrofuran-3-ylsulfonyl-2-[(4S)-2,2,4-trimethylpyrrolidin-1-yl]pyridine-3-carboxamide] | +++ (“+++” means <3 uM) |
| CC(C)COc1cc(F)cc(-c2nc(N3C[C@@H](C)CC3(C)C)c(C(=O)NS(=O)(=O)c3cccc(N)n3)cc2Cl)c1 [Compound 1641, N-[(6-amino-2-pyridyl)sulfonyl]-5-chloro-6-(3-fluoro-5-isobutoxy-phenyl)-2-[(4S)-2,2,4-trimethylpyrrolidin-1-yl]pyridine-3-carboxamide] | +++ (“+++” means <3 uM) |
| CC(C)COc1cc(F)cc(-c2ccc(C(=O)NS(=O)(=O)c3cccc(N)n3)c(OC3(C)CCC3)n2)c1 [Compound 1644, N-[(6-amino-2-pyridyl)sulfonyl]-6-(3-fluoro-5-isobutoxy-phenyl)-2-(1-methylcyclobutoxy)pyridine-3-carboxamide] | +++ (“+++” means <3 uM) |
| Cc1cc(OCC(C)C)cc(-c2ccc(C(=O)NS(=O)(=O)c3cccc(N)n3)c(N3C[C@@H](C)CC3(C)C)n2)c1 [Compound 1646, N-[(6-amino-2-pyridyl)sulfonyl]-6-(3-isobutoxy-5-methyl-phenyl)-2-[(4 S)-2,2,4-trimethylpyrrolidin-1-yl]pyridine-3-carboxamide] | +++ (“+++” means <3 uM) |
| CC(C)COc1cc(F)cc(-c2ccc(C(=O)NS(=O)(=O)N3CCC(O)C3)c(N3C[C@@H](C)CC3(C)C)n2)c1 (stereo partly drawn) [Compound 1648, 6-(3-fluoro-5-isobutoxy-phenyl)-N-(3-hydroxypyrrolidin-1-yl)sulfonyl-2-[(4S)-2,2,4-trimethylpyrrolidin-1-yl]pyridine-3-carboxamide] | +++ (“+++” means <3 uM) |
| CC(=O)Nc1cccc(S(=O)(=O)NC(=O)c2ccc(-c3cc(F)cc(OCC(C)C)c3)nc2N2C[C@@H](C)CC2(C)C)n1 [Compound 1652, N-[(6-acetamido-2-pyridyl)sulfonyl]-6-(3-fluoro-5-isobutoxy-phenyl)-2-[(4S)-2,2,4-trimethylpyrrolidin-1-yl]pyridine-3-carboxamide] | +++ (“+++” means <3 uM) |
| CC(C)COc1cc(F)cc(-c2ccc(C(=O)NS(=O)(=O)c3cccc(N)n3)c(OCCc3cccnc3)n2)c1 [Compound 1654, N-[(6-amino-2-pyridyl)sulfonyl]-6-(3-fluoro-5-isobutoxy-phenyl)-2-[2-(3-pyridyl)ethoxy]pyridine-3-carboxamide] | +++ (“+++” means <3 uM) |
| Cc1cc(OCC(C)C)nc(-c2ccc(C(=O)NS(=O)(=O)c3cccc(N)n3)c(N3C[C@@H](C)CC3(C)C)n2)c1 [Compound 1656, N-[(6-amino-2-pyridyl)sulfonyl]-6-(6-isobutoxy-4-methyl-2-pyridyl)-2-[(4S)-2,2,4-trimethylpyrrolidin-1-yl]pyridine-3-carboxamide] | +++ (“+++” means <3 uM) |

Reference: US10758534B2 (Vertex Pharmaceuticals Incorporated, priority 2014, dated 2020)
